Read-outs that look alike come from different tables or passages of the source.
Legend:
GABL = GABL biochallenge test of preserved polymer emulsions (streak plate / RABIT), inoculations passed; type: cell-based, Gluconoacetobacter liquefaciens; conditions: for Inoculations Passed: PVOH-stabilized VAE emulsion, Tg 0 °C, <1000 ppm vinyl acetate; for preservative quality against GABL compared with cationic compounds (in words): common industrial biocides, CIT/MIT limited to 50 ppm, DBNPA to 100 ppm; for efficacy against GABL (in words): even at doses of 450 and 500 ppm; for preservative efficacy against GABL (in words): dosages similar to 200 ppm, failing immediately after the initial GABL inoculation
Method: GABL Inoculum Preparation
A recently isolated culture of GABL was grown on potato dextrose agar slants by inoculating the agar surface. The potato dextrose agar slants were incubated for 48-72 hours at 25° C. After this incubation period, GABL cells were harvested using quarter strength Ringers solution to wash the GABL colonies off of the agar surface. The washings from each slant were combined into one sterile, Erlenmeyer flask. The number of slants and the amount of quarter strength Ringers solution used to wash off the GABL colonies was adjusted during the procedure to obtain a final microbial viable count in the range of 10^8-10^10 CFU/mL.
Rapid Automated Bacterial Impedance Technique (RABIT): supplied by Microbiology International, manufactured by Don Whitley Scientific, Ltd.
RABIT utilizes the principal of impedance microbiology to detect and assess microbial activity in a given sample. Using the RABIT, microbial metabolism is monitored by measuring the amount of carbon dioxide produced by actively respiring microorganisms. The electrodes in the RABIT test cells are partially covered with alkaline agar containing potassium hydroxide. As inoculated test samples are monitored on the RABIT, carbon dioxide produced from microbial metabolism is absorbed by the alkaline agar resulting in a change in conductivity. Conductivity is monitored with time and the time to reach a pre-specified rate of reduction in conductivity is termed the time to detection (TTD). Therefore, the shorter the TTD, the higher the number of microorganisms present. Failure can be defined as three successive decreases in conductivity equal to or greater than a pre-specified value (−10 microSiemens is recommended by the manufacturer) at any time during the 72 hour RABIT monitoring period. Alternatively, failure can be defined as a pre-specified total change in conductivity.
Biochallenge Test Procedure
Samples (50 g each) of each test emulsion containing a test antimicrobial agent were inoculated with 1.0 mL of the GABL inoculum. After mixing well, the samples were then placed in a 30° C. incubator. After 1, 2, and 6 days of incubation each sample was streak plated onto potato dextrose agar to assess the level of surviving GABL microorganisms. The potato dextrose agar plates were incubated at 25° C. for 48-72 hours before assessing the growth. On the seventh day of incubation, each test emulsion sample was inoculated again with a freshly prepared GABL inoculum, mixed well, then placed back into the incubator. The samples were again streak plated onto potato dextrose agar after incubating for 1, 2, and 6 days since the second inoculation. On the fourteenth day after the test was initiated, the test emulsions were inoculated a third time with another freshly prepared GABL inoculum and then placed back into the incubator. The samples were again streak plated onto potato dextrose agar after 1, 2, 6, and 13 days of incubation since the third inoculation to assess surviving microorganisms. Test failure is defined as a microbial viable count >300 CFU/10 μL observed from the potato dextrose agar streak plate assessments.
Biochallenge Test Procedure Via the RABIT
A small amount of a microbial nutrient was added to each emulsion test sample (50 g) containing a test antimicrobial agent. The resulting samples were then inoculated with 1.0 mL of the GABL inoculum. After mixing well, an aliquot (5 g) of each test sample was placed into separate RABIT indirect conductivity tubes. The indirect conductivity tubes were then placed into the RABIT incubator modules set at 30° C. and the conductivity changes monitored for up to 72 hours. The remainder of each test sample was stored in a 30° C. incubator during the RABIT monitoring period. At the completion of the RABIT monitoring period, the aliquot samples were placed back into their respective sample containers. Each test sample was then re-inoculated with a freshly prepared GABL inoculum. […]

mixed bacterial pool = type: cell-based; conditions: PVOH-stabilized VAE emulsion Tg 0, <1000 ppm vinyl acetate
Method: The preservative efficacy of several cationic compounds in a poly(vinyl alcohol)-stabilized VAE copolymer emulsion (Tg=0) containing less than 1000 ppm vinyl acetate was assessed according to the following procedure:
Aeromonas hydrophilia, Alcaligenes faecalis, Corynebacterium ammoniagenes, Enterobacter aerogenes, Escherichia coli, Klebsiella pneumoniae, Pseudomonas aeruginosa, Proteus vulgaris, Providencia rettgeri, Pseudomonas stutzeri, Shewanella putrefaciens, Serratia liquefaciens, Acinetobacter baumannii, Burkholderia cepacia, Chryseobacterium meningosepticum, Sphingobacterium spiritivorum, Ralstonia pickettii, and GABL.
Mixed Bacterial Pool Inoculum Preparation
Each bacterial culture was individually grown on nutrient agar slants, except GABL was grown on potato dextrose agar slants, by inoculating the agar surfaces. The nutrient agar slants were incubated for 24-48 hours at 30° C. and the potato dextrose agar slants were incubated for 48-72 hours at 25° C. After this incubation period, the cells were harvested using quarter strength Ringers solution to wash the bacterial colonies off the agar surface. The washings from all of the slants were combined into one sterile, Erlenmeyer flask. The number of slants and the amount of Ringers Solution used to wash off the bacterial colonies is adjusted during the procedure to obtain a final mixed microbial viable count in the range of 10^8-10^10 CFU/mL.
Bacterial Biochallenge Test Procedure
The RABIT procedures were followed as described in Example 1, except the mixed bacterial pool inoculum was used to inoculate the test samples instead of the GABL inoculum.

## O=CCCCC=O [Glutaraldehyde, reference compound]
GABL; biocide dosage 500 ppm active
  Inoculations Passed: 0
GABL
  preservative quality against GABL compared with cationic compounds (in words): inferior preservatives
  efficacy against GABL (in words): ineffective

## N=C(NCCCCCCNC(=N)NC(=N)Nc1ccc(Cl)cc1)NC(=N)Nc1ccc(Cl)cc1.O=C(O)[C@H](O)[C@@H](O)[C@H](O)[C@H](O)CO.O=C(O)[C@H](O)[C@@H](O)[C@H](O)[C@H](O)CO [Chlorhexidine digluconate, reference compound]
GABL; biocide dosage 250 ppm active
  Inoculations Passed: 0

## CC(C)[C@H](N)C(=O)O [Valine]
GABL; biocide dosage 1000 ppm active
  Inoculations Passed: 0

## N#CCCC(Br)(C#N)CBr (stereo not shown) [DBDCB, 1,2-dibromo-2,4-dicyanobutane, reference compound]
GABL; biocide dosage 450 ppm active
  Inoculations Passed: 0
GABL
  preservative quality against GABL compared with cationic compounds (in words): inferior preservatives
  efficacy against GABL (in words): ineffective

## CCCCCCCCCCCCCCCC[N+](C)(C)C.[Br-] [CTAB, cetyltrimethylammonium bromide]
GABL; biocide dosage 300 ppm active
  Inoculations Passed: 1
GABL
  preservative efficacy against GABL (in words): ineffective

## N#CC(Br)(Br)C(N)=O [DBNPA, 2,2-dibromo-3-nitrilo-propionamide, reference compound]
GABL; biocide dosage 100 ppm active
  Inoculations Passed: 0
GABL
  preservative quality against GABL compared with cationic compounds (in words): inferior preservatives
  efficacy against GABL (in words): ineffective

## Benzalkonium chloride [TPI ® 1717]
GABL; biocide dosage 200 ppm active
  Inoculations Passed: 0
GABL; biocide dosage 300 ppm active
  Inoculations Passed: 0

## CCCCCCCCCC[N+](C)(C)CCCCCCCCCC.[Cl-] [BTC ® 1010, Didecyldimethylammonium chloride]
GABL; biocide dosage 200 ppm active, listed as BTC 1010
  Inoculations Passed: 3

## CCCCCCCCCCCCCCCC[n+]1ccccc1 [CPC, cetylpyridinium chloride, reference compound]
GABL; biocide dosage 100 ppm active
  Inoculations Passed: 0
GABL; biocide dosage 250 ppm active
  Inoculations Passed: 2
GABL; biocide dosage 300 ppm active
  Inoculations Passed: 5
Mixed bacterial pool; active biocide dosage 300 ppm
  Inoculations Passed: 5
Mixed bacterial pool; active biocide dosage 400 ppm
  Inoculations Passed: 7

## CC(=O)O.CC(=O)O.NC(=N\CCCCCC/N=C(N)/N=C(\N)Nc1ccc(Cl)cc1)/N=C(\N)Nc1ccc(Cl)cc1 [Chlorhexidine diacetate, reference compound]
GABL; biocide dosage 400 ppm active
  Inoculations Passed: 0

## CCCCCCCCCC[N+](C)(C)CCCCCCCCCC.[Cl-] [TPI ® 1716, Didecyldimethylammonium chloride]
GABL; biocide dosage 100 ppm active
  Inoculations Passed: 0
GABL; biocide dosage 200 ppm active, listed as TPI 1716
  Inoculations Passed: 2
GABL; biocide dosage 300 ppm active
  Inoculations Passed: ≧5

## Tetrakis(hydroxymethyl) phosphonium sulfate [Tolcide ® PS]
GABL; biocide dosage 500 ppm active
  Inoculations Passed: 0

## [H]/N=C(\N/C(=N/[H])NCCCCCCNC(=N)NC(=N)Nc1ccc(Cl)cc1)Nc1ccc(Cl)cc1 [chlorhexidine, reference compound]
GABL
  preservative efficacy against GABL (in words): ineffective

## NCC(=O)O [Glycine]
GABL; biocide dosage 500 ppm active
  Inoculations Passed: 0
